Experimental data: patent publication US11397178B2, “Method of predicting progression of idiopathic pulmonary fibrosis and monitoring of therapeutic efficacy” (Cedars-Sinai Medical Center, priority 2016, dated 2022)

Assays:
[1] = FDA approved treatment of IPF patients; cited from earlier work
[2] = tested on: CCR10+ IPF Cell-Induced Fibrosis in NSG Mice; experiment: Humanized NSG mouse model of IPF: BIBF1120 from day 35 (Masson's trichrome, hydroxyproline, flow cytometry); format: in vivo; settings: for modulation of fibrosis in humanized NSG model of IPF: therapeutic treatment from day 35
Experimental: IPF cells were injected intravenously into NSG mice and beginning at day 35 after injection mice were treated either with a solutol vehicle or 60 mg/kg BIBF-1120 solubilized in solutol for 5 days a week over 4 weeks. (A-C) Depicted are representative images of Masson's Trichrome staining of non-humanized (A) and humanized NSG mice that received solutol (B) or BIBF-1120 (C). (D) Depicted is the hydroxyproline in the lungs of non-humanized or humanized NSG mice that received solutol or BIBF-1120. Data are mean±s.e.m.; n=5-10/group. (E-F) Solutol- or BIBF1120-treated NSG humanized mouse lungs were analyzed by flow cytometry for human CD45, EpCAM and/or CCR10 expression. Depicted is the average number of CD45^+ CCR10^+ (E) and Lin^− CCR10^+ (F) cells in humanized NSG mice treated with solutol or BIBF1120. Data are mean±s.e.m.; n=5-10/group. p values indicated
Six to eight-week old, female, pathogen free NOD Cg-Prkdc^SCID IL2rg^Tm1wil Szi (NSG) or NOD.Cg-Prkdc^SCID IL2rg^tm1Wil Tg(CAG-EGFP) 10sb/SzJ (NSG-GFP) were purchased from Jackson Laboratories and housed in Cedars-Sinai Medical Center's high isolation animal rooms. NSG mice were allowed a minimum of one week to acclimate in the facility and then these mice either received nothing (i.e., non-humanized) 1×10^6 IPF cells by intravenous injection (i.e. humanized). In most in vivo experiments, the IPF cells used were removed from liquid N2 storage, rapidly thawed, and washed in serum-free medium prior to injection into NSG mice. Humanized NSG mice received KB004 (i.e., anti-EphA3 mAb supplied by Kalobios; 5 mg/kg) or KB243 (i.e., appropriate IgG control supplied by Kalobios; 5 mg/kg) either from days 0 to 35 or from days 35 to 63 by intraperitoneal injection twice weekly. […] Other groups of humanized NSG mice received either vehicle (i.e., solutol) or BIBF1120 (Cayman Chemicals) by oral gavage beginning at day 35 after IPF cell injection. Vehicle or drug was administered 5 days a week until day 63 after IPF cell injection. All NSG groups were monitored daily and mice were sacrificed if there is evidence for morbidity such as weight loss of more than 20%, loss of fur, paralysis and/or lack of responsiveness when handled.
Murine lung cellular suspensions were generated using a mouse lung dissociation kit, C-tubes, and a GentleMacs dissociator (Miltenyi Biotech). Spleens were dissociated using a sterile rubber tip of 1 ml syringe plunger and 100 μm 50 ml tube filters (BD bioscience) as follows: isolated spleens were placed in 1 ml of sterile complete medium until all the samples were collected. Sterile 50 ml conical tube filters were placed on top of sterile 50 ml conical tubes and were equilibrated by pipetting 1 ml of calcium and magnesium free DPBS (DBPS; Cellgro) through the filters. Spleens were transferred to a sterile 50 ml filter, cellular suspensions were generated using a sterile rubber tip of a syringe plunger, and splenic material was flushed with 5 ml of DPBS. Lung and splenic cell suspensions were centrifuged and resuspended in 1 ml of RBC lysis buffer (Biolegend), incubated at room temperature for 1-2 min and then equilibrated by adding 25 ml of DPBS to each tube. Cells were centrifuged and resuspended in flow cytometric wash/staining buffer (DPBS+2% FBS) in the presence of human and mouse Fc receptor blocking antibodies (Biolegend). Cells were then stained with anti-human-CD45, -EpCAM and -CCR10 antibodies for 20 min at 4° C. Unstained, isotype controls, fluorescent minus one controls and staining in non-humanized murine lung and spleen suspensions were utilized to gate out any non-specific antibody binding and background fluorescence. CCR10 antibodies were validated via the enrichment for CCR10 transcripts in magnetically sorted CCR10^+ cells versus non-sorted normal and IPF explant cells (FIG. 35). […]

[3] = tested on: normal and IPF lung fibroblasts; experiment: Flow cytometry for cell surface EphA3 expression on stimulated lung fibroblasts; format: cell-based, human; settings: 20 ng/ml; twenty-four hours after stimulation
Experimental: IPF surgical lung biopsy samples were obtained. IPF lung fibroblasts were generated by mechanically dissociating IPF lung biopsies or explants into sterile tissue culture plates. After mechanical dissociation, tissues were passed through a 25-ml pipette for 10 times, in DMEM (Lonza)+15% FBS (Cell Generation), 100 IU penicillin and 100 μg/ml streptomycin (Mediatech), 292 μg/ml L-Glutamine (Mediatech) and 100 μg/ml of Primocin (Invivogen) (complete medium). Cells were cultured at 37° C. and 10% CO2, medium was changed twice a week by careful removal of the liquid and retaining the minced tissues. This process was repeated for 1-2 weeks, until stromal colonies were apparent, after which fibroblast colonies were trypsinized and passaged. After 4-5 passages, fibroblast purity was confirmed using flow cytometry and/or qPCR analysis for CD45, EpCAM and CD31. Fibroblasts were then cultured in complete medium; fresh medium was added to the fibroblasts every 2-3 days and the cells were passaged when they were 70-90% confluent. […] After treatment, cells were then analyzed by flow cytometry for cell surface EphA3 expression.
Lung fibroblasts were plated and treated as described above. […] Flow cytometric data were acquired using a MACSQuant 10 (Miltenyi Biotech) flow cytometer and data were analyzed using Flowjo software V10.2 (freest& Inc.).

[4] = tested on: normal and IPF lung fibroblasts; experiment: Soluble collagen 1 ELISA of lung fibroblast conditioned supernatants; format: cell-based, human
Experimental: Lung fibroblasts (5000/well) were plated into a 96 well plate and incubated overnight. After incubation, cells were stimulated with 20 ng/ml of IL1β or vehicle in the presence or absence of 20 μg/ml of EphA3-Fc or IgG antibodies (supplied by Kalobios) for 24 and 72 h. After stimulation, conditioned supernatants were collected and the cells were washed and fixed with 4% paraformaldehyde solution in PBS for 10 min at room temperature.
Lung fibroblast conditioned supernatants were diluted 1:5 in DPBS. Purified Collagen 1 (STEMCELL Technologies Inc), diluted in 1:5 DBPS diluted complete medium, was utilized to generate an 8-point collagen 1 standard ranging from 200-0 ng/ml. Fifty microliters of the supernatants and standards were coated onto multisorb 96 well plates (Thermo Fisher Scientific) overnight at 4° C. After coating, the plates were washed and blocked with 200 μl of 3% BSA solution in DPBS (Lonza) for 1 h at room temperature on an orbital shaker. After blocking, plates were washed and 50 μl of 200 ng/ml biotin-conjugated anti collagen-1 antibody (Abcam Ab24821) was added to each well and the plates were incubated for 2 h at room temperature on an orbital shaker. […] Data were acquired by reading the absorbance at 405 nm using a Synergy H1 microplate reader (BioTek Instruments Inc.). […]

[5] = tested on: normal and IPF lung fibroblasts; experiment: In cell αSMA ELISA in lung fibroblasts; format: cell-based, human; settings: CCL28; data not shown
Experimental: Lung fibroblasts (5000/well) were plated into a 96 well plate and incubated overnight. […] After stimulation, conditioned supernatants were collected and the cells were washed and fixed with 4% paraformaldehyde solution in PBS for 10 min at room temperature.
After fixation, cells were washed and permeabilized with 0.5% Triton X-100 in DPBS for 10 min, washed and endogenous peroxidase activity was blocked by adding a solution of 0.3% H2O2 in DPBS to the cells and incubating the cells with the solution for 20 min at room temperature. Cells were then washed and wells were blocked with a 1% BSA solution in DPBS for 30 min at room temperature. After blocking, cells were incubated with 500 ng/ml of anti-czSMA antibodies (Clone 1A4, Abcam) overnight at 4° C. on a rocker. […] The reaction was then stopped by adding 50 μl of 2N sulfuric acid and data were acquired by reading the absorbance at […] using a Synergy H1 microplate reader (BioTek Instruments Inc.). […] Data were acquired by reading the absorbance at 595 nm using a Synergy H1 microplate reader (BioTek Instruments Inc.). Ratios were generated from αSMA/β-tubulin absorbance data and the results were normalized to vehicle. The fold change after 24 and 72 h relative to vehicle was then determined and depicted in the figures.

lung fibroblast = experiment: Lung fibroblast invasiveness (not shown); format: cell-based, human; settings: CCL28; data not shown
[6] = 60 mg/kg from day 35, day 63, flow cytometry

Molecule: Cc1ccc(=O)n(-c2ccccc2)c1 [ESBRIET, Pirfenidone]
- disease progression in IPF patients [1]: effective at slowing down, but not halting, disease progression

Molecule: COC(=O)c1ccc2c(c1)NC(=O)/C2=C(\Nc1ccc(N(C)C(=O)CN2CCN(C)CC2)cc1)c1ccccc1 [BIBF1120, Nintedanib]
- disease progression in IPF patients [1]: effective at slowing down, but not halting, disease progression
- lung hydroxyproline compared with non-humanized NSG lungs ([2]; 60 mg/kg from day 35, day 63): elevated
- CD45+ CCR10+ cells in NSG lungs compared with vehicle-treated group [2, 6]: greater
- Lin- CCR10+ cells in NSG lungs compared with vehicle-treated group [2, 6]: greater
- lung fibrosis (Masson's trichrome staining) ([2]; 60 mg/kg in solutol from day 35, lungs at day 63 after IPF cell injection): showed lung fibrosis
- modulation of fibrosis in humanized NSG model of IPF [2]: ineffective at modulating fibrosis
- modulation of fibrosis in humanized NSG model of IPF ([2]; listed as nintedanib): did not therapeutically modulate fibrosis

Molecule: IL1β: cytokine Interleukin 1 beta used to stimulate lung fibroblasts (R&D systems) [reference compound]
- surface EphA3 on normal and IPF lung fibroblasts [3]: significantly unregulated
- collagen 1 in normal and IPF lung fibroblasts ([4]; IL1β 20 ng/ml, after 24 and, to a lesser extent, 72 h): induced

B1: CCL28: chemokine, CCR10 ligand (protein, UniProt Q9NRJ3 20-127, looked up)
C-C motif chemokine 28: SEAILPIASSCCTEVSHHISRRLLERVNMCRIQRADGDCDLAAVILHVKRRRICVSPHNHTVKQWMKVQAAKKNGKGNVCHRKKHHGKRNSNRAHQGKHETYGHKTPY
- αSMA protein expression in lung fibroblasts [5]: did not consistently modulate
- lung fibroblast invasiveness (lung fibroblast): did not consistently modulate
- collagen 1 secretion by lung fibroblasts ([4]; CCL28, data not shown): did not consistently modulate
